Assays:
E. coli MG1655 = test: Monatin excretion with 2.5 mM sodium decanoate, E. coli MG1655 strains with pUC19, robA or ramA (30, 48 h); type: cell-based, Escherichia coli
From the text: The strains used for the experiment included E. coli MG1655 : : aspC/proA/pProNdeDel together with the robA gene from E. coli cloned into the pUC19 vector. The control strain was E. coli MG1655 : : aspC/proA/pProNde along with the pUC19 vector. The robA gene was amplified from E. coli W3110 using primers 5′[…]3′ (SEQ ID NO. 20) and 5′[…]3′ (SEQ ID NO. 21), which introduced SalI and BamHI sites at the end of the amplified fragment. The PCR fragment was cloned between the SalI and BamHI sites of the vector pUC19 (GenBank/EMBL accession number L09137). For inoculum, the E. coli strains were grown overnight at 37° C. and 250 rpm in Luria-Bertani (“LB”) medium with 100 μg/mL ampicillin and 50 μg/mL kanamycin.
For the experimental treatments, Trp-1+glucose medium, a minimal medium that has been used for increased production of tryptophan in E. coli cells (Zeman et al. Folia Microbiol. 35:200-204, (1990)), was prepared as follows. To 800 mL nanopure water the following reagents were added: 2 g (NH4)2SO4 and 13.6 g KH2PO4. The pH was adjusted to 7.0, the volume was increased to 948 mL, and the medium was autoclaved. Following sterilization, 0.2 g MgSO4.7H2O, 0.01 g CaCl2.2H2O, and 0.5 mg FeSO4.7H2O were ad to the medium in a 1.8 mL volume followed by addition of 0.2 mL of Neidhardt's micronutrient solution. Neidhardt F. C., et al., “Culture medium for Enterobacteria,” J. Bacteriol. 119:736-746, (1974). Neidhardt's medium includes (per liter): 0.18 g (NH4)6(MO7)24-4H2O, 1.24 g H3BO3, 0.36 g CoCl2.6H2O, 0.12 g CuSO4 (anhydrous), 0.8 g MnCl2.4H2O, and 0.14 g ZnSO4.7H2O. A 50% glucose solution was prepared separately and sterile-filtered. Forty mL of glucose solution and 10 mL of 1 M 3-Morpholinopropanesulfonic acid (“MOPS”) buffer were added to the base medium (950 mL) for a 1 L final volume.
(§1) Conditions for the treatments included 250 rpm agitation throughout and 37° C. up to induction, then, 30° C. following induction. At 0.30-0.50 OD600 nm, induction of the plasmid genes was initiated. At induction, 1.0 mM IPTG, 0.5% L-arabinose, 0.5 mM pyridoxine hydrochloride, and 0.2 mLs of Balch's vitamins were added. Additions of 10 g/L L-tryptophan, 10 g/L sodium pyruvate, 0.04 mM pyridoxal-5′-phosphate (“PLP”) and 0.2% Tween® 20 (polyoxyethylene 20-sorbitan monolaurate) were made 3 hours following induction. Some treatments included 2.5 mM sodium decanoate addition at 3 hours following induction.
The strains used for the experiment included E. coli MG1655 : : aspC/proA/pProNdeDel together with the ramA gene from Enterobacter aerogenes cloned into the pUC19 vector (GenBank/EMBL accession number L09137). The control strain was E. coli MG1655 : : aspC/proA/pProNde along with the pUC19 vector. The ramA gene was amplified from E. aerogenes ATCC 13048 by using primers, 5′[…]3′ (SEQ ID NO. 22) and 5′[…]3′ (SEQ ID NO. 23), which introduced Sal I and BamH I sites at the end of the amplified fragment. The PCR fragment was cloned between the Sal I and BamH I sites of the vector pUC19 (GenBank/EMBL accession number L09137). For inoculum, the E. coli strains were grown overnight at 37° C. and 250 rpm in Luria-Bertani (“LB”) medium with 100 μg/mL ampicillin and 50 μg/mL kanamycin.
For the experimental treatments, Trp-1+glucose medium, a minimal medium that has been used for increased production of tryptophan in E. coli cells (Zeman et al. Folia Microbiol. 35:200-204, (1990)), was prepared as follows. To 800 mL nanopure water the following reagents were added: 2 g (NH4)2SO4 and 13.6 g KU2PO4. The pH was adjusted to 7.0, the volume was increased to 948 mL, and the medium was autoclaved. Following sterilization, 0.2 g MgSO4.7H2O, 0.01 g CaCl2.2H2O, and 0.5 mg FeSO4.7H2O were to the medium in a 1.8 mL volume followed by addition of 0.2 mL of Neidhardt's micronutrient solution. Neidhardt F. C., et al., “Culture medium for Enterobacteria,” J. Bacteriol. 119:736-746, (1974). […]

E. coli MG1655 ΔAcrAB = test: Monatin excretion with 2.5 mM sodium decanoate, E. coli MG1655 ΔAcrAB strains with pUC19, robA, ramA or baeR (24, 30, 48 h); type: cell-based, Escherichia coli
Protocol: as §1
Conditions for the treatments included 250 rpm agitation throughout and 37° C. up to induction, then, 30° C. following induction. At an OD600 nm between 0.30-0.50, induction of the plasmid genes was initiated. At induction, 1.0 mM IPTG, 0.5% L-arabinose, 0.5 mM pyridoxine hydrochloride, and 0.2 mLs of Balch's vitamins were added. Additions of 10 g/L L-tryptophan, 10 g/L sodium pyruvate, 0.04 mM pyridoxal-5′-phosphate (“PLP”) and 0.2% Tween® 20 (polyoxyethylene 20-sorbitan monolaurate) were made 3 hours following induction. Some treatments included 2.5 mM sodium decanoate addition at 3 hours following induction.
Conditions for the treatments included 250 rpm agitation throughout and 37° C. up to induction, then, 30° C. following induction. At 0.35-0.38 OD600 nm, induction of the plasmid genes was initiated. At induction, 1.0 mM IPTG, 0.5% L-arabinose, 0.5 mM pyridoxine hydrochloride, and 0.2 mLs of Balch's vitamins were added. Additions of 10 g/L L-tryptophan, 10 g/L sodium pyruvate, 0.04 mM pyridoxal-5′-phosphate (“PLP”) and 0.2% Tween® 20 (polyoxyethylene 20-sorbitan monolaurate) were made 3.5 hours following induction. At 24 hours after inoculation, another 10 g/L increment of sodium pyruvate was added to each flask. Some treatments included 2.5 mM sodium decanoate addition at 3.5 hours following induction.

[1] = E. coli MG1655::aspC proA pProNdedel pUC19 (control), n = 2
[2] = E. coli MG1655::aspC proA pProNdedel, ramA pUC19, n = 2
[3] = E. coli MG1655::aspC proA pProNdedel, robA pUC19, n = 2
[4] = ΔAcrAB::aspC proA pProNde del robA pUC19, n = 2
[5] = ΔAcrAB::aspC proA pProNde del, ramA pUC19, n = 2
[6] = ΔAcrAB::aspC proA pProNdedel, pUC19 (control), n = 2
[7] = ΔacrAB AspC ProA pProNde del BaeR pUC19, n = 2

CCCCCCCCCC(=O)[O-].[Na+] [sodium decanoate]
Monatin/dcw, 30 hours (E. coli MG1655; [1]): 4.66 mg/g | Monatin/dcw, 48 hours (E. coli MG1655; [1]): 4.31 mg/g | Monatin/dcw, 30 hours (E. coli MG1655; [2]): 3.69 mg/g | Monatin/dcw, 48 hours (E. coli MG1655; [2]): 13.90 mg/g | Monatin/dcw, 30 hours (E. coli MG1655; [3]): 6.91 mg/g | Monatin/dcw, 48 hours (E. coli MG1655; [3]): 25.62 mg/g | Monatin/dcw, 24 hours (E. coli MG1655 ΔAcrAB; [4]): 45.7 mg/g | Monatin/dcw, 30 hours (E. coli MG1655 ΔAcrAB; [4]): 58.6 mg/g | Monatin/dcw, 48 hours (E. coli MG1655 ΔAcrAB; [4]): 81.7 mg/g | Monatin/dcw, 24 hours (E. coli MG1655 ΔAcrAB; [5]): 32.3 mg/g | Monatin/dcw, 30 hours (E. coli MG1655 ΔAcrAB; [5]): 41.7 mg/g | Monatin/dcw, 48 hours (E. coli MG1655 ΔAcrAB; [5]): 61.1 mg/g | Monatin/dcw, 24 hours (E. coli MG1655 ΔAcrAB; [6]): 10.7 mg/g | Monatin/dcw, 30 hours (E. coli MG1655 ΔAcrAB; [6]): 29.7 mg/g | Monatin/dcw, 48 hours (E. coli MG1655 ΔAcrAB; [6]): 39.3 mg/g | Mean monatin per dry cell weight, 24 hours (E. coli MG1655 ΔAcrAB; [7]): 34.4 mg/g | Mean monatin per dry cell weight, 30 hours (E. coli MG1655 ΔAcrAB; [7]): 85.0 mg/g | Mean monatin per dry cell weight, 48 hours (E. coli MG1655 ΔAcrAB; [7]): 137.3 mg/g

From US8158389B2, “Products and methods for in vivo secretion of monatin” (priority 2005, dated 2012)
